Laboratory results as given in patent EP1233943B1, “IONIZABLE INDOLINONE DERIVATIVES AND THEIR USE AS PTK LIGANDS” (Sugen, Inc., priority 1999, dated 2001).
Converted amounts (≈) assume the structure as drawn. Read-outs that look alike come from different tables or passages of the source.

Assays:
[1] = Oral bioavailability of formulations in beagle dogs; assay type: in vivo; conditions: higher doses in fasted conditions
Method: The formulation described below enhance the oral bioaviability of COMPOUND IV in beagle dogs, a preclinical absorption model.
Both formulations contain 50 mg/gm of Pluronic F-68. The formulation at 50 mg/gm of COMPOUND IV contains 900 mgs of sesame oil and the one that contains 250 mg/gm of COMPOUND IV contains 700 mgs of sesame oil.
AUC refers to the area under the curve of the plasma concentration time curve and represents oral bioavilability (BA). Higher AUC indicates higher BA.

[2] = Subcutaneous xenograft model in athymic mice, A431; assay type: in vivo, human; conditions: mouse, in vivo, 100 mg/kg/day; 100 mg/kg/d IP daily in DMSO
Method: (§1) In most experiments, compound was administered daily.
(§2) Tumor growth was measured using venier calipers.

A431 (human epidermal) = assay: Subcutaneous xenograft model in athymic mice, A431; assay type: in vivo; conditions: 100 mg/kg/d IP daily in DMSO; day 24; BALB/c nu/nu mice
Method: as §1, §2

[3] = system: EpH4-VEGF1 (murine epithelial); assay: in vivo; conditions: 75 mg/kg/d IP daily in DMSO; day 18; BALB/c nu/nu mice
Method: as §1, §2

in vivo [4] = conditions: mouse, in vivo, ip, 75 mg/kg/day
Method: as §1, §2

SKOV3TP5 (human ovarian) = conditions: 75 mg/kg/d IP daily in DMSO; day 25; BALB/c nu/nu mice
Method: (§3) SF763T, SF767T, and SKOV3TP5 were derived by implanting the parental cells SC into BALB/c nu/nu mice.
For the SKOV3TP5 cells, fragments of resected tumors were injected SC into mice for in vivo passaging. This procedure was repeated five times before cells were returned to culture as described above.
as §1, §2

in vivo [5] = assay: in vivo
Method: (§5) C6 cells were cultured in Ham's F-10 supplemented with 5% FBS and 2mM L-glutamine. […] All cell cultures were maintained at 37°C in a humidified atmosphere of 5-10% CO2.
(§6) Tumor cell lines (0.6 - 10 x 10^6 cells/animal; n = 8-20 animals/group) were implanted SC in the hindflank region of 8-12 week old BALB/c nu/nu female mice.
(§7) Tumor growth was measured using venier calipers. Tumor volumes were calculated as the product of length x width x height. Statistical analysis was carried out using Student's t-test.
(§8) C6 cells were implanted SC into athymic mice on day zero. […] On Day 16, all Group 3 animals were humanely sacrificed due to tumor burden (mean tumor diameter approximately 1300 mm^3), and the growth of tumors in Groups 1 and 2 was monitored until the mean tumor burden of each group reached 1300 mm^3.
(§9) Beginning one day post-implantation, compound (200 mg/kg/day in solution in a Labrasol®-containing vehicle) was administered to mice PO. Tumor growth was measured using venier calipers and tumor volumes were calculated as the product of length x width x height.

SF767T (human glioma) = conditions: 75 mg/kg/d IP daily in DMSO; day 21; BALB/c nu/nu mice
Method: as §3
(§4) For the SF763T and SF767T cell lines, two to five mL of appropriate medium was added to the slurry and the tumor pieces were further mechanically teased apart. […] Medium was changed every two to three days. After three to five passages, the antibiotic supplements were removed and the cells maintained in antibiotic-free medium.
as §1, §2

SF763T (human glioma) = conditions: 75 mg/kg/d IP daily in DMSO; day 21; BALB/c nu/nu mice
Method: as §3, §4, §1, §2

A375 (human melanoma) = assay: in vivo; conditions: 75 mg/kg/d IP in DMSO, dosed 3x/week; day 29; BALB/c nu/nu mice
Method: as §1, §2

in vivo [6] = conditions: mouse, in vivo, ip, 75 mg/kg/day; remark: listed apart in the source
Method: as §1, §2

Method for C6 (rat glioma): as §5, §6, §7, §8, §9
Method for physchem: The solution was filtered, appropriate dilutions made and the concentration of the compound in the supernatant was analyzed by a reverse phase HPLC method.

## Cc1[nH]c(C=C2C(=O)Nc3ccccc32)c(C)c1CCC(=O)O [Example 1, 3-[2,4-dimethyl-5-(2-oxo-1,2-dihydro-indol-3-ylidenemethyl)-1H-pyrrol-3-yl]-propionic acid]
[1]
  bioavailability: low bioavailability
C6 (rat glioma); 100 mg/kg/d IP daily in DMSO, day 18, BALB/c nu/nu mice
  % Inhibition @ (day): 65 (18) %
C6 (rat glioma); IP 25 mg/kg Daily X 5, day 18
  % Inhibition (at day): 1(18) %
C6 (rat glioma); IP 50 mg/kg Daily X 5, day 18
  % Inhibition (at day): 68 (18) %
C6 (rat glioma); IP 50 mg/kg Daily, day 18
  % Inhibition (at day): 27 (18) %
C6 (rat glioma); IP 50 mg/kg Three times weekly, day 18
  % Inhibition (at day): 25 (18) %
C6 (rat glioma); IP 50 mg/kg Twice weekly, day 19
  % Inhibition (at day): 36 (19) %
C6 (rat glioma); IP 75 mg/kg Daily X 5, day 18
  % Inhibition (at day): 54 (18) %
C6 (rat glioma); IP 75 mg/kg Daily, day 18
  % Inhibition (at day): 53 (18) %
C6 (rat glioma); IP 75 mg/kg Three times weekly, day 18
  % Inhibition (at day): 29 (18) %
C6 (rat glioma); IP 75 mg/kg Twice weekly, day 19
  % Inhibition (at day): 26 (19) %
C6 (rat glioma); IP 75 mg/kg/day from Day 7, when measurable tumors were present
  efficacy on established tumors: efficacious
C6 (rat glioma); IP 100 mg/kg Daily X 5 followed by Once weekly, day 15
  % Inhibition (at day): 42(15) %
C6 (rat glioma); IP 100 mg/kg Daily, day 18
  % Inhibition (at day): 65 (18) %
C6 (rat glioma); IP 100 mg/kg Three times weekly, day 18
  % Inhibition (at day): 40 (18) %
C6 (rat glioma); IP 100 mg/kg Twice weekly, day 19
  % Inhibition (at day): 38 (19) %
C6 (rat glioma); IP 100 mg/kg twice weekly or three times weekly, statistically significant
  tumor growth inhibition: approximately 40%
C6 (rat glioma); IP 150 mg/kg Daily X 5 followed by once weekly, day 15
  % Inhibition (at day): 51 (15) %
C6 (rat glioma); PO 200 mg/kg/day in a Labrasol-containing vehicle, Day 18 post-implantation, compared to vehicle-treated animals
  tumor growth inhibited: 82%
[2]
  mortality: 12.5%
A431 (human epidermal)
  % Inhibition @ (day): 84 (24) %
physchem; 2% polysorbate-80
  solubility: < 13 mg/mL
physchem; 30% peg 300 in buffer, pH 8.2, organic solvent or mixture
  solubility: 32 mg/mL (≈ 103 mM)
[3]
  % Inhibition @ (day): 34 (18) %
In vivo [4]
  mortality: 0%
SKOV3TP5 (human ovarian)
  % Inhibition @ (day): 9 (25) %
In vivo [5]; ip, 100 mg/kg/day
  mortality: 12.5%
In vivo [5]; po, 200 mg/kg/day
  mortality: 10%
SF767T (human glioma)
  % Inhibition @ (day): 46 (21) %
SF763T (human glioma)
  % Inhibition @ (day): 48 (21) %
A375 (human melanoma)
  % Inhibition @ (day): 56(29) %
In vivo [6]
  mortality: 0%
